According to PMC11678328, “Phosphine Oxide Indenoquinoline Derivatives: Synthesis and Biological Evaluation as Topoisomerase I Inhibitors and Antiproliferative Agents” (Molecules, 2024):

What was measured:
[1] = system: MRC-5, lung fibroblast cells; test: CCK-8 cytotoxicity assay, MRC5; type: cell-based, human; details: Homo sapiens; MRC5 non-cancerous cells, 48h, CCK-8
From the text: (§1) The cytotoxic effects of the newly synthesized diphenyl(tetrahydro-5H-indeno[2,1-c]quinolin-2-yl)phosphine oxides 8, diphenyl(7H-indeno[2,1-c]quinolin-2-yl)phosphine oxides 9, and diphenyl(7-oxo-7H-indeno[2,1-c]quinolin-2-yl)phosphine oxides 10 derivatives were studied against several human cell lines: A549 (carcinomic human alveolar basal epithelial cell), SKOV3 (human ovarian carcinoma), and HEK293 (human embryonic kidney). Furthermore, in order to analyze the selective cytotoxicity facing exclusively cancerous cell lines, toxicity against a non-cancerous cell line (MRC-5, lung fibroblast cells) was also evaluated (Table 3). The cell counting kit (CCK-8) assay was employed to assess the growth inhibition and cell proliferation inhibitory activities of the compounds, which are described in Table 3 as IC50 values.
(§2) Cells were cultured according to the supplier’s instructions. Cells were seeded in 96-well plates at a density of 1.5–3 × 10^3 cells per well and incubated overnight in 0.1 mL of media supplied with 10% Fetal Bovine Serum (Lonza) in a 5% CO2 incubator at 37 °C. On day 2, drugs were added and the samples were incubated for 48h. After treatment, 10 μL of the cell counting kit-8 was added into each well for an additional 2h incubation at 37 °C. The absorbance of each well was determined by an Automatic Elisa Reader System at 450 nm wavelength (deducting 620 nm). CPT was used as the positive control.

[2] = biological target: T1, human TOP1 (Homo sapiens, UniProt P11387); test: TOP1 supercoiled plasmid DNA relaxation assay; type: biochemical; details: for TOP1 Inhibition 30 min: 30 min reaction, compounds at 100 μM, semiquantitative; for TOP1 relaxation activity after preincubation of compound with DNA: 100 μM, compound incubated with DNA for 15 min at 37 °C before TOP1 was added
T1 construct: made in house; host or cells: Saccharomyces cerevisiae TOP1 null strain RS190, plasmid pHT143 (GAL promoter)
T1 sequence (P11387 1-765): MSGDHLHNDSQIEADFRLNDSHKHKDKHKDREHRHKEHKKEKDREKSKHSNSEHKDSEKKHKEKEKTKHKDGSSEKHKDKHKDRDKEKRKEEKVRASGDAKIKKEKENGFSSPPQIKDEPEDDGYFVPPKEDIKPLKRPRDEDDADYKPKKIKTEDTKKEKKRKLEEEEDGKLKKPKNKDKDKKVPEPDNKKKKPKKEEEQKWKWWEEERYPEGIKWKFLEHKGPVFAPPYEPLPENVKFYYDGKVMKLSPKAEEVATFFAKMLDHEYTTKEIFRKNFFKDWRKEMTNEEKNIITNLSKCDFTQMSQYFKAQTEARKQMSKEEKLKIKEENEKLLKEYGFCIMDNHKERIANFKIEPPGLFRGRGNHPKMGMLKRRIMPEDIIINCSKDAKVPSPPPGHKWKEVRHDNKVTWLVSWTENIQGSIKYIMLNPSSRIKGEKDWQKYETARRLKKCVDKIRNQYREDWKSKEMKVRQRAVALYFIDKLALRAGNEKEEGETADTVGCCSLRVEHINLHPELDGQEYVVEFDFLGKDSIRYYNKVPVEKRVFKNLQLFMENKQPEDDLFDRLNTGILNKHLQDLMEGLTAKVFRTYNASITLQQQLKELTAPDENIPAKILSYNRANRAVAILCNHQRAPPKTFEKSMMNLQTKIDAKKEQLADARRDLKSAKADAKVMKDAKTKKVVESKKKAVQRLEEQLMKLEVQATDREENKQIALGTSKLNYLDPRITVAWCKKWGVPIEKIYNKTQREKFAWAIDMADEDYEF

[3] = system: SKOV3 (human ovarian carcinoma); test: CCK-8 cytotoxicity assay, SKOV3; type: cell-based; details: SK-OV-3, SKOV3 cells, 48h
From the text: as §1, §2

[4] = system: A549 (carcinomic human alveolar basal epithelial cell); test: CCK-8 cytotoxicity assay, A549; type: cell-based; details: Homo sapiens, A549, 48 h, A549 cells, 48h, CCK-8
From the text: as §1, §2

[5] = biological target: T1, human TOP1; test: TOP1 supercoiled plasmid DNA relaxation assay; type: biochemical; details: for Persistence of TOP1 inhibition over the time course / TOP1 relaxation activity after preincubation of compound with TOP1: 100 μM; for Persistence of TOP1 inhibition over the time course: in words; for TOP1 Inhibition 1 min: 1 min reaction; for TOP1 Inhibition 1 min / TOP1 Inhibition 3 min / TOP1 Inhibition 5 min: compounds at 100 μM, semiquantitative; for TOP1 Inhibition 3 min: 3 min reaction; for TOP1 Inhibition 5 min: 5 min reaction; for TOP1 relaxation activity after preincubation of compound with TOP1: compound incubated with TOP1 for 15 min at 37 °C, then DNA added
From the text: The effect of the previously prepared compounds as TOP1 inhibitors was studied. A conventional supercoiled plasmid relaxation assay was used to determine if the newly fused tetrahydroindenoquinolines 8, more aromatic indenoquinolines 9, and carbonyl derivatives 10 with phosphine oxide substituents inhibit human TOP1 activity by converting supercoiled plasmid DNA to its relaxed form. In these experiments, compound samples were mixed with the enzyme followed by the addition of a supercoiled plasmid DNA substrate, and incubation continued for increasing time intervals (1 min, 3 min, and 5 min). The reaction was terminated by the addition of SDS. DNA relaxation products were then resolved by 1% agarose electrophoresis gel and visualized by gel red staining.
The yeast Saccaromyces cerevisiae TOP1 null strain RS190, which was used for the expression of recombinant human TOP1, was a kind gift from R. Sternglanz (State University of New York, Stony Brook, NY, USA). Plasmid pHT143, for the expression of recombinant TOP1 under the control of an inducible GAL promoter, was described. The plasmids pHT143 were transformed into the yeast S. cerevisiae strain RS190. The proteins were expressed and purified by affinity chromatography essentially as described. The protein concentrations were estimated from Coomassie blue-stained SDS/polyacrylamide gels by comparison to serial dilutions of bovine serum albumin (BSA).
TOP1 activity was assayed using a DNA relaxation assay by incubating 110 ng/mL of TOP1 with 0.5 µg of negatively supercoiled pUC18 in […] of reaction buffer (20 mM Tris HCl, 0.1 mM Na2EDTA, 10 mM MgCl2, […] acetylated BSA, and 150 mM KCl, pH 7.5). The effect of the synthesized phosphorylated derivatives 8, 9, and 10 on the TOP1 activity was measured by adding different concentrations of the compounds, at different time points, as indicated in the text. The reactions were performed at 37 °C stopped by the addition of 0.5% SDS after the indicated time intervals. The samples were protease-digested and electrophoresed in a horizontal 1% agarose gel in 1xTBE (50 mM Tris, 45 mM boric acid, 1 mM EDTA) at 25V during 18h. The gel was stained with gel red (BIOTIUM, 5 mg/mL), destained with water, and photographed under UV illumination. Since all drugs were dissolved in dimethyl sulfoxide (DMSO), a […] control sample containing the same DMSO concentration as the samples incubated with the drugs was included in all experiments.

[6] = system: HEK293 (human embryonic kidney); test: CCK-8 cytotoxicity assay, HEK293; type: cell-based; details: HEK293 cells, 48h
From the text: as §1, §2

Compound | IC50 [1] | TOP1 Inhibition 30 min [2] | IC50 [3] | IC50 [4] | Persistence of TOP1 inhibition over the time course [5] | TOP1 Inhibition 1 min [5] | TOP1 Inhibition 3 min [5] | TOP1 Inhibition 5 min [5] | IC50 [6] | TOP1 relaxation activity after preincubation of compound with DNA [2] | TOP1 relaxation activity after preincubation of compound with TOP1 [5]
O=P(c1ccccc1)(c1ccccc1)c1ccc2c(c1)C1c3ccccc3CC1C(c1ccccc1)N2 (centres unmarked) [Compound 8a, Diphenyl(6-phenyl-6,6a,7,11b-tetrahydro-5H-indeno[2,1-c]quinolin-2-yl)phosphine oxide] | > 50 µM | ++ | 6.35 ± 1.73 µM | 40.2 ± 7.13 µM | more persistent inhibition | ++ | ++ | ++ |  |  | 
O=P(c1ccccc1)(c1ccccc1)c1ccc2c(c1)C1c3ccccc3CC1C(c1ccc(C(F)(F)F)cc1)N2 (centres unmarked) [Compound 8b, Diphenyl(6-(4-(trifluoromethyl)phenyl)-6,6a,7,11b-tetrahydro-5H-indeno[2,1-c]quinolin-2-yl)phosphine oxide] | > 50 µM | +++ (strong inhibition) | > 50 µM | 25.8 ± 6.98 µM | more persistent inhibition | +++ (strong inhibition) | +++ (strong inhibition) | +++ (strong inhibition) | > 50 µM | partially relaxing the DNA | the enzyme was inactive, not being able to relax the DNA
O=P(c1ccccc1)(c1ccccc1)c1ccc2c(c1)C1c3ccccc3CC1C(c1ccc(F)cc1)N2 (centres unmarked) [Compound 8c, Diphenyl(6-(4-fluorophenyl)-6,6a,7,11b-tetrahydro-5H-indeno[2,1-c]quinolin-2-yl)phosphine oxide] | 10.7 ± 0.43 µM | ++ | > 50 µM | 19.9 ± 3.35 µM |  | ++ | ++ | ++ | > 50 µM |  | 
O=P(c1ccccc1)(c1ccccc1)c1ccc2c(c1)C1c3ccccc3CC1C(c1cccc3ccccc13)N2 (centres unmarked) [Compound 8g, Diphenyl(6-(naphthalen-1-yl)-6,6a,7,11b-tetrahydro-5H-indeno[2,1-c]quinolin-2-yl)phosphine oxide] | > 50 µM | + (weak inhibition) | > 50 µM | > 50 µM |  | + (weak inhibition) | + (weak inhibition) | + (weak inhibition) | > 50 µM |  | 
O=[N+]([O-])c1ccc(C2Nc3ccc(P(=O)(c4ccccc4)c4ccccc4)cc3C3c4ccccc4CC23)cc1 (centres unmarked) [Compound 8k, Diphenyl(6-(4-nitrophenyl)-6,6a,7,11b-tetrahydro-5H-indeno[2,1-c]quinolin-2-yl)phosphine oxide] | > 50 µM | + (weak inhibition) | > 50 µM | > 50 µM | more persistent inhibition | + (weak inhibition) | + (weak inhibition) | + (weak inhibition) | > 50 µM |  | 
O=P(c1ccccc1)(c1ccccc1)c1ccc2nc(-c3ccc(C(F)(F)F)cc3)c3c(c2c1)-c1ccccc1C3 [Compound 9b, Diphenyl(6-(4-(trifluoromethyl)phenyl)-7H-indeno[2,1-c]quinolin-2-yl)phosphine oxide] | > 50 µM | +++ (strong inhibition) | > 50 µM | > 50 µM |  | +++ (strong inhibition) | +++ (strong inhibition) | +++ (strong inhibition) | > 50 µM | partially relaxing the DNA | the enzyme was inactive, not being able to relax the DNA
O=P(c1ccccc1)(c1ccccc1)c1ccc2nc(-c3cccc4ccccc34)c3c(c2c1)-c1ccccc1C3 [Compound 9g, Diphenyl(6-(naphthalen-1-yl)-7H-indeno[2,1-c]quinolin-2-yl)phosphine oxide] | > 50 µM | ++ | > 50 µM | > 50 µM |  | ++ | ++ | ++ | > 50 µM |  | 
COc1cccc(-c2nc3ccc(P(=O)(c4ccccc4)c4ccccc4)cc3c3c2Cc2ccccc2-3)c1 [Compound 9i, Diphenyl(6-(3-methoxyphenyl)-7H-indeno[2,1-c]quinolin-2-yl)phosphine oxide] | > 50 µM | ++ | > 50 µM | > 50 µM |  | ++ | ++ | ++ | > 50 µM |  | 
O=C1c2ccccc2-c2c1c(-c1ccccc1)nc1ccc(P(=O)(c3ccccc3)c3ccccc3)cc21 [Compound 10a, Diphenyl(7-oxo-6-phenyl-7H-indeno[2,1-c]quinolin-2-yl)phosphine oxide] | > 50 µM | ++ | > 50 µM | > 50 µM |  | + (weak inhibition) | ++ | ++ | > 50 µM |  | 
O=C1c2ccccc2-c2c1c(-c1ccc(C(F)(F)F)cc1)nc1ccc(P(=O)(c3ccccc3)c3ccccc3)cc21 [Compound 10b, Diphenyl(7-oxo-(6-(4-trifluoromethyl)phenyl)-7H-indeno[2,1-c]quinolin-2-yl)phosphine oxide] | > 50 µM | ++ | > 50 µM | > 50 µM |  | ++ | ++ | ++ | > 50 µM |  | 
